Values quoted from earlier work, collected in US20060166941A1, “Treatment and/or prevention of non-viral epithelial damage” (Epistem Limited, priority 2003, published 2006).

Test system: Na+/Pi cotransport across renal cortical brush border membrane
Details: Hoppe et al. 1988; cited from earlier work

O=C(O)C(Cl)(Br)P(=O)(O)O (stereo not drawn) [alpha-Cl-alpha-Br-phosphonoacetate]
inhibitory activity relative to phosphonoformic acid: threefold greater inhibitory activity than phosphonoformic acid
